Measured values published in patent US9056152B2, “Medical device with crystalline drug coating” (Boston Scientific Scimed, Inc., priority 2011, dated 2015).

Columns and labels:
[1] = Porcine animal study of everolimus coated stents: drug in artery tissue (LC/MS) and drug remaining on stent (HPLC); assay type: in vivo, common swine; details: explanted at 28 days; for Tissue content at 28 days: 130 μg on 12 mm stents implanted in coronary and internal thoracic arteries of swine, drug in arteries by LC/MS; for % drug left on stent at 28 days: 130 μg on 12 mm stents implanted in swine arteries, drug remaining on stent by HPLC
Protocol: Stents coated with either crystalline or amorphous everolimus (130 μg on 12 mm stents) were implanted in the coronary arteries and internal thoracic arteries of common swine. The stented vessels were explanted after 3 hrs, 24 hrs, 7, 14 and 28 days. N=3 stents per timepoint were used. After sacrifice the stents were removed from the arteries and the amount of drug in the arteries was determined by LC/MS. The amount of drug remaining on the stent was determined by HPLC.

[2] = Everolimus solubility in water @ 37° C., amorphous vs crystalline form; assay type: physicochemical; details: data shown in FIG. 1
Protocol: FIG. 1 is a graph comparing everolimus solubility data in water @ 37° C. for amorphous and crystalline forms.

[3] = listed as crystalline everolimus

Row | Tissue content at 28 days [1] | Tissue content at 28 days ([1]; listed as amorphous everolimus) | % drug left on stent at 28 days [1] | % drug left on stent at 28 days ([1]; listed as amorphous drug) | Tissue content at 28 days [1, 3] | % drug left on stent at 28 days [1, 3] | Structure (SMILES) | solubility in water [2]
1 | 0.04 ng/mg | essentially no drug in the tissue | 0% | no drug remaining on the stents |  |  | CO[C@H]1C[C@@H]2CC[C@@H](C)[C@@](O)(O2)C(=O)C(=O)N2CCCC[C@H]2C(=O)O[C@H]([C@H](C)C[C@@H]2CC[C@@H](OCCO)[C@H](OC)C2)CC(=O)[C@H](C)/C=C(\C)[C@@H](O)[C@@H](OC)C(=O)[C@H](C)C[C@H](C)/C=C/C=C/C=C/1C [Amorphous Everolimus, 40-O-(2-Hydroxyethyl)rapamycin] | 
2 | 6.1 ng/mg |  | 25.8% |  | 6 ng/mg | 25% | CO[C@H]1C[C@@H]2CC[C@@H](C)[C@@](O)(O2)C(=O)C(=O)N2CCCC[C@H]2C(=O)O[C@H]([C@H](C)C[C@@H]2CC[C@@H](OCCO)[C@H](OC)C2)CC(=O)[C@H](C)/C=C(\C)[C@@H](O)[C@@H](OC)C(=O)[C@H](C)C[C@H](C)/C=C/C=C/C=C/1C [Crystalline Everolimus, 40-O-(2-Hydroxyethyl)rapamycin] | much lower solubility in water than amorphous everolimus
